Data published in PMC9481570, “A small molecule antagonist of SMN disrupts the interaction between SMN and RNAP II” (Nature Communications, 2022).
“And” between values parts separate entries of the source, which are not always exact repeats. Equal values may be shown once.

Assays:
Assay in all cases: Affinity-purification and mass spectrometry (AP-MS) chemical proteomics, all proteins;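 on Difference: 200 µM free competitor with 20 µM biotin probe overnight in lysate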
Type in all cases: binding
[1] = molecular target: T1, proteins displaced from immobilized biotin-Cmpd 1 pulldowns (U2OS cell lysate) (Homo sapiens, UniProt Q15366); details: GN=PCBP2 (Q15366)
T1 construct: endogenous in cells; host or cells: U2OS

[2] = molecular target: T2, proteins displaced from immobilized biotin-Cmpd 1 pulldowns (U2OS cell lysate) (Homo sapiens, UniProt Q9Y5B9); details: GN=SUPT16H (Q9Y5B9)
T2 construct: endogenous in cells; host or cells: U2OS

[3] = molecular target: T3, proteins displaced from immobilized biotin-Cmpd 1 pulldowns (U2OS cell lysate) (Homo sapiens, UniProt Q92621); details: GN=NUP205 (Q92621)
T3 construct: endogenous in cells; host or cells: U2OS

[4] = molecular target: T4, proteins displaced from immobilized biotin-Cmpd 1 pulldowns (U2OS cell lysate) (Homo sapiens, UniProt Q9NZM5); details: GN=NOP53 (Q9NZM5)
T4 construct: endogenous in cells; host or cells: U2OS

[5] = molecular target: T5, proteins displaced from immobilized biotin-Cmpd 1 pulldowns (U2OS cell lysate) (Homo sapiens, UniProt Q13573); details: GN=SNW1 (Q13573)
T5 construct: endogenous in cells; host or cells: U2OS

[6] = molecular target: T6, proteins displaced from immobilized biotin-Cmpd 1 pulldowns (U2OS cell lysate) (Homo sapiens, UniProt Q5T749); details: GN=KPRP (Q5T749)
T6 construct: endogenous in cells; host or cells: U2OS

[7] = molecular target: T7, proteins displaced from immobilized biotin-Cmpd 1 pulldowns (U2OS cell lysate) (Homo sapiens, UniProt P01040); details: GN=CSTA (P01040)
T7 construct: endogenous in cells; host or cells: U2OS
T7 sequence (P01040 whole entry): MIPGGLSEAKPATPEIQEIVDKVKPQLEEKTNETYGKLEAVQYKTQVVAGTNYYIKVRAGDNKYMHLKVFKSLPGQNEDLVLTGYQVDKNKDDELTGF

T5 sequence (Q13573 whole entry): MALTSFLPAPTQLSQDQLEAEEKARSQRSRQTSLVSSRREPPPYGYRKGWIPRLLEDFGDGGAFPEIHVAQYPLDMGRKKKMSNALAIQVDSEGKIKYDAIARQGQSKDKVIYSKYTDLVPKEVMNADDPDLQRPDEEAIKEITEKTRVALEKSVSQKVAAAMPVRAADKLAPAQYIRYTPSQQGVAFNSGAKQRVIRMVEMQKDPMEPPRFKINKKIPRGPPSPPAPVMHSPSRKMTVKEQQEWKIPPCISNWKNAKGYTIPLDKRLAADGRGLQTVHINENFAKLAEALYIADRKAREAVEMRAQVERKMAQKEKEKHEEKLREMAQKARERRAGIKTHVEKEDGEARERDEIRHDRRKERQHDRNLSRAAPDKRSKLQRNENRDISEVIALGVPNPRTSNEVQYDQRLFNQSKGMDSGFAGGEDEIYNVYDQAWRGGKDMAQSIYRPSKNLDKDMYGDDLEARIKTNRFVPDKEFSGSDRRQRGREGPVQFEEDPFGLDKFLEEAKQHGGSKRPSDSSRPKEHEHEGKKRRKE
T2 sequence (Q9Y5B9 whole entry): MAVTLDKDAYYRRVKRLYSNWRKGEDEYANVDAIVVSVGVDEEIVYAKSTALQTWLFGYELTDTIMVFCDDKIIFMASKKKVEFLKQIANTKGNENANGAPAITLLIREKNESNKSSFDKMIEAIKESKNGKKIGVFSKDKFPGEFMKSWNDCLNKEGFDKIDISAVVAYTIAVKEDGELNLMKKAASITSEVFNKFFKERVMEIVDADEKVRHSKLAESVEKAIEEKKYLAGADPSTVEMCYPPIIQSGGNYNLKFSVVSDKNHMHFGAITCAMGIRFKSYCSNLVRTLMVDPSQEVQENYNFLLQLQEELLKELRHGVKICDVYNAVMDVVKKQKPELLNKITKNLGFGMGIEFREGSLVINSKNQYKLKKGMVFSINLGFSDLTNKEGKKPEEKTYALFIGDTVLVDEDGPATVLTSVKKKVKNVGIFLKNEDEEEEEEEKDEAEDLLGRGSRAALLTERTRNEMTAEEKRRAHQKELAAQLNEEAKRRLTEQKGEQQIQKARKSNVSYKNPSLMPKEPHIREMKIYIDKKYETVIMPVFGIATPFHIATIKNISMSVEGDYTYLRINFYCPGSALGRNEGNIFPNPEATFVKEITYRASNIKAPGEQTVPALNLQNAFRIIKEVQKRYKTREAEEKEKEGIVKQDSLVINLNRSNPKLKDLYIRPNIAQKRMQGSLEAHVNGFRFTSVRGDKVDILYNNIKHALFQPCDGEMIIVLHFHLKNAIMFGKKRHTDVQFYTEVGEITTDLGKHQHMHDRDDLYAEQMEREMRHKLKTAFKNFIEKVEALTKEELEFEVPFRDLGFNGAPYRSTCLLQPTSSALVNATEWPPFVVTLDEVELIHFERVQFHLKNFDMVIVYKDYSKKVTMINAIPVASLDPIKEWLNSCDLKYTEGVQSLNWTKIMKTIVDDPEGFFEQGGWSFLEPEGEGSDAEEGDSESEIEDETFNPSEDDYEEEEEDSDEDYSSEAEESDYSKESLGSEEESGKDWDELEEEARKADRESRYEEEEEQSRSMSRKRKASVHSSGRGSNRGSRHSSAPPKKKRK
T6 sequence (Q5T749 whole entry): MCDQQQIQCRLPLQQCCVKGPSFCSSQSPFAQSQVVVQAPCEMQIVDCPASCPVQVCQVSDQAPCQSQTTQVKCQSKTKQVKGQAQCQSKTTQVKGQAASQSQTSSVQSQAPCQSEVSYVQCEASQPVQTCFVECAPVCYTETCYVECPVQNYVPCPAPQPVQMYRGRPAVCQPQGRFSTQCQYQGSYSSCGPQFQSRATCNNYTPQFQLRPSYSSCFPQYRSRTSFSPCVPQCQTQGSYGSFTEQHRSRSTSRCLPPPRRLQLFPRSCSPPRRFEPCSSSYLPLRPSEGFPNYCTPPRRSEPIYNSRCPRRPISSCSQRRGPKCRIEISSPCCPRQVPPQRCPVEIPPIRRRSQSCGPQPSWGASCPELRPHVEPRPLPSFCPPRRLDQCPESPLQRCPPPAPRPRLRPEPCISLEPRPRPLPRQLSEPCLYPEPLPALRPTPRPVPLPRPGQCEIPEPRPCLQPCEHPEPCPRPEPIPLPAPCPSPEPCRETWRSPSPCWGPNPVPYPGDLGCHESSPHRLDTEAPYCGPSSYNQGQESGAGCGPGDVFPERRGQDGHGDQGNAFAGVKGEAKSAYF
T1 sequence (Q15366 whole entry): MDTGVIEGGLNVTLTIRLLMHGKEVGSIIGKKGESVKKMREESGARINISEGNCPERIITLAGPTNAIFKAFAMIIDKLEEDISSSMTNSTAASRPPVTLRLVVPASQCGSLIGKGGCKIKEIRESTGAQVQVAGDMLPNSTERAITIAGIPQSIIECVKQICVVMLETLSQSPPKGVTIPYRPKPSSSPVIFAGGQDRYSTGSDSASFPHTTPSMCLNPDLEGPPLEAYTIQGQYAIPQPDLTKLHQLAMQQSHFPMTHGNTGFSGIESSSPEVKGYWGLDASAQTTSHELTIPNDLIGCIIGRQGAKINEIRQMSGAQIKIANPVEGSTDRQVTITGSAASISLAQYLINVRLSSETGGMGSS
T3 sequence (Q92621 whole entry): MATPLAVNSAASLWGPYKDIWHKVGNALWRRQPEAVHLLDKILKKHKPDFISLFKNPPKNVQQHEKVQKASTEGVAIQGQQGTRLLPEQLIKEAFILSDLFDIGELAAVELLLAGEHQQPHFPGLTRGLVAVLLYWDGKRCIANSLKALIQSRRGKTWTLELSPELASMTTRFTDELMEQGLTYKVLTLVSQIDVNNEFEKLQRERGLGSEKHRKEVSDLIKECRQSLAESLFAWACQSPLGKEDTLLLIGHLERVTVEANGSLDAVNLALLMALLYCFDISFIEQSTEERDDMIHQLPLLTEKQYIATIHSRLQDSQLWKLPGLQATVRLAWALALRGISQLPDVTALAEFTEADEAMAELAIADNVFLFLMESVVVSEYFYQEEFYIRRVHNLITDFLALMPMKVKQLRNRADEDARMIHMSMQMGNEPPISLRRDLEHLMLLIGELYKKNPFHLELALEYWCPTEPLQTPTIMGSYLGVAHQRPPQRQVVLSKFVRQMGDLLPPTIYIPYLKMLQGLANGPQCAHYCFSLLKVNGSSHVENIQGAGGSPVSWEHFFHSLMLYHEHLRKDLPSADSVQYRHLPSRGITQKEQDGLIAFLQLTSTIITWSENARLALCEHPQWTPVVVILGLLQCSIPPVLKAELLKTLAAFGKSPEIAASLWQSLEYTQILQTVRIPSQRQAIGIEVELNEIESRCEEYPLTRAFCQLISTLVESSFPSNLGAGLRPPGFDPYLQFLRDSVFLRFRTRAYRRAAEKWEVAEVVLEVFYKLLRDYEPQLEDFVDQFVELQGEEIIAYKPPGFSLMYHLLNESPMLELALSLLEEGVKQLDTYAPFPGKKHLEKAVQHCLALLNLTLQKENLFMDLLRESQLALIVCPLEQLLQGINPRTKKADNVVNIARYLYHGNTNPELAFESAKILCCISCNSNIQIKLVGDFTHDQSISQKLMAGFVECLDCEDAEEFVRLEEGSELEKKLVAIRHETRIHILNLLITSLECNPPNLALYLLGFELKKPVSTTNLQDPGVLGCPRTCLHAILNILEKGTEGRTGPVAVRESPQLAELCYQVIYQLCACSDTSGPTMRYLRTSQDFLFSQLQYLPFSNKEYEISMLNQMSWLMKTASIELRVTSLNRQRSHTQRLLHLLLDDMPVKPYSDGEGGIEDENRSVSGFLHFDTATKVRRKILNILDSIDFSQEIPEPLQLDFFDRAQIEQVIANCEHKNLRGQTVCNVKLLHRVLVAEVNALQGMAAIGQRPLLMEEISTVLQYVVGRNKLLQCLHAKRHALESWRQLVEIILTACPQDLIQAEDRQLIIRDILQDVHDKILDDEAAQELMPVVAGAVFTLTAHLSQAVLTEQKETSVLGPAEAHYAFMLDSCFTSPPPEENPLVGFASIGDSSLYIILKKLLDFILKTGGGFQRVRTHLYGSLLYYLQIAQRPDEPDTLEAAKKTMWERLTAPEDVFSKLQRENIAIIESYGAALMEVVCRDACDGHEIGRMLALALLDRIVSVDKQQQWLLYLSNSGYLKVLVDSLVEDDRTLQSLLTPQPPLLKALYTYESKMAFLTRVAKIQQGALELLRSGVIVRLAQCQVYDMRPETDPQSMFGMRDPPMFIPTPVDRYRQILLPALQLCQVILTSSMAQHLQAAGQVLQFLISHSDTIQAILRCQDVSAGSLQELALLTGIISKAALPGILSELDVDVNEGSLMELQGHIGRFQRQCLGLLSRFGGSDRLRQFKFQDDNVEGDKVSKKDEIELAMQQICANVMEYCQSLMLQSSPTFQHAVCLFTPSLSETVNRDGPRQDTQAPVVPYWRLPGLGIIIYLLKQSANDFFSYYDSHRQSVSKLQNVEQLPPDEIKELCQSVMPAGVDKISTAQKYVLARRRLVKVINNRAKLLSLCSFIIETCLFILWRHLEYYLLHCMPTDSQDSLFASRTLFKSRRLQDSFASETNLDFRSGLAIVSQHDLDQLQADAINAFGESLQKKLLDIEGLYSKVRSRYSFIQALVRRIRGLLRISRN

Cn1c2c(c(=N)c3c1CCC3)CCC2 [Compound 1, 4-methyl-2,3,4,5,6,7-hexahydrodicyclopenta[b,e]pyridin-8(1H)-imine]
Difference ([1]; Cmpd minus DMSO, -LOG(P-value) 0.939549): -2.733 | iBAQ Cmpd ([1]; replicates 1-3): 15.8606 and 15.1154 and 18.8903 | Difference ([2]; Cmpd minus DMSO, -LOG(P-value) 1.35125): 1.168 | iBAQ Cmpd ([2]; replicates 1-3): 20.1986 and 19.3251 and 19.6735 | Difference ([3]; Cmpd minus DMSO, -LOG(P-value) 0.772292): 1.661 | iBAQ Cmpd ([3]; replicates 1-3): 17.4605 and 16.7059 and 15.0689 | Difference ([4]; Cmpd minus DMSO, -LOG(P-value) 0.867991): 2.66 | iBAQ Cmpd ([4]; replicates 1-3): 18.4766 and 17.8155 and 17.9258 | Difference ([5]; Cmpd minus DMSO, -LOG(P-value) 1.77748): 2.177 | iBAQ Cmpd ([5]; replicates 1-3): 17.1233 and 17.0397 and 16.2301 | Difference ([6]; Cmpd minus DMSO, -LOG(P-value) 1.8417): -3.732 | iBAQ Cmpd ([6]; replicates 1-3): 15.9159 and 16.7213 and 14.3127 | Difference ([7]; Cmpd minus DMSO, -LOG(P-value) 0.909034): -0.9866 | iBAQ Cmpd ([7]; replicates 1-3): 23.1983 and 23.5243 and 22.4826
